How the values were obtained:
CCR-3 receptor = biological target: T1, CCR-3 receptor (Homo sapiens, UniProt P51677); assay: CCR-3 Receptor Binding Assay, inhibition of 125I eotaxin binding to CCR-3 L1.2 transfectant cells; conditions: CCR-3 L1.2 transfected cells, 1 hour at rt., read-out: CCR3 Binding IC50
T1 construct: expressed in transfected cells; host or cells: L1.2 (murine pre-beta lymphoma line)
T1 sequence (P51677 1-355): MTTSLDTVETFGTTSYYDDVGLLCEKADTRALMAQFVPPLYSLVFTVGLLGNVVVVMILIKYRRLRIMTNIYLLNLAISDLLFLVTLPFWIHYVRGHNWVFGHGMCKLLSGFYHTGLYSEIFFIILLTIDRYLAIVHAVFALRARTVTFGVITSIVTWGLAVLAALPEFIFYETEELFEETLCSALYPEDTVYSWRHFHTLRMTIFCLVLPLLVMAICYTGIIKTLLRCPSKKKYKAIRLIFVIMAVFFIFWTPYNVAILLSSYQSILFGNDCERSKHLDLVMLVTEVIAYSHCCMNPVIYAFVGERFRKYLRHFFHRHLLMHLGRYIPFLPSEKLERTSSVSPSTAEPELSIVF
Protocol: The CCR-3 antagonistic activity of the compounds of the invention was determined by their ability to inhibit the binding of ^125 I eotaxin to CCR-3 L1.2 transfectant cells (see Ponath, P. D. et al., J. Exp. Med., Vol. 183, 2437-2448, (1996)).
The assay was performed in Costar 96-well polypropylene round bottom plates. Test compounds were dissolved in DMSO and then diluted with binding buffer (50 mM HEPES, 1 mM CaCl2, 5 mM MgCl2, 0.5% bovine serum albumin (BSA), 0.02% sodium azide, pH 7.24) such that the final DMSO concentration was 2%. 25 μl of the test solution or only buffer with DMSO (control samples) was added to each well, followed by the addition of 25 μl of ^125I-eotaxin ([…]) (NEX314, New England Nuclear, Boston, Mass.) and 1.5×10^5 of the CCR-3 L1.2 transfected cells in 25 μl binding buffer. The final reaction volume was 75 μl.
After incubating the reaction mixture for 1 hour at rt., the reaction was terminated by filtering the reaction mixture through polyethylenimine treated Packard Unifilter GF/C filter plate (Packard, Chicago, Ill.). The filters were washed four times with ice cold wash buffer containing 10 mm HEPES and 0.5M sodium chloride (pH 7.2) and dried at 65° C. for approximately 10 minutes. 25 μl/well of Microscint-20® scintillation fluid (Packard) was added and the radioactivity retained on the filters was determined by using the Packard TopCount®. […]

melting point [°C] | IC50 (CCR-3 receptor) [nM] | SMILES
155.3 to 156.9 | – | Cc1ccc2oc(NC(CN3CCN(Cc4ccc(Cl)c(Cl)c4)CC3)C(C)C)nc2c1 (stereo not drawn) [Example 9, {1-[4-(3,4-Dichloro-benzyl)-piperazin-1-ylmethyl]-2-methyl-propyl}-(5-methyl-benzooxazol-2-yl)-amine]
– | 150 | CC(C)(C)[C@H](CN1CCC(Cc2ccc(Cl)c(Cl)c2)CC1)Nc1nc2ccccc2o1 [Example 18, 1-[(R)-2-(benzooxazol-2-ylamino)-3,3-dimethyl-butyl]-4-(3,4-dichloro-benzyl)-piperidinium; chloride]
– | 970 | CC(C)C(CN1CCN(Cc2ccc(Cl)c(Cl)c2)CC1)Nc1nc2ccccc2o1 (stereo not drawn) [Example 28, 1-[2-(Benzooxazol-2-ylamino)-3-methyl-butyl]-4-(3,4-dichloro-benzyl)-piperazin-1-ium; chloride]
